We go through eleven compounds from PubChem BioAssay (NCI).

Test systems include COLO 205 colon; HOP-62 NSCLC; MDA-MB-231 breast; NCI-H460 lung; OVCAR-4 ovarian; OVCAR-5 ovarian; RPMI-8226 leukemia; TK-10 renal.
What all share (assay): NCI anticancer screen, dose series, 48 h

Each structure is given as a SMILES string.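 Five compound concentrations were applied to cells in 96-well plates for 48 hours; endpoints were derived by simple linear interpolation of the resulting dose-response curve. Abbreviation: GI50, concentration required for 50% inhibition of growth. TGI: concentration producing complete growth inhibition.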

With `CC(C)=CCc1cc2c(cc1O)C1=C(C(=O)C3=C(NCCS3(=O)=O)C1=O)C(C=C(C)C)O2` (centres undefined), the GI50 in the assay on COLO 205 colon is 5.53 µM; with HOP-62 NSCLC, 8.59 µM; in the assay with MDA-MB-231 breast, 4.18 µM; with NCI-H460 lung it was 5.35 µM; in the assay on OVCAR-4 ovarian it was 3.31 µM; with OVCAR-5 ovarian it was > 16.7 µM. Further, the values for the GI50 in the assay with RPMI-8226 leukemia and with TK-10 renal were 5.56 µM and > 16.7 µM, respectively. The TGI was > 16.7 µM in the assay with COLO 205 colon; > 16.7 µM in the assay with HOP-62 NSCLC; 16.2 µM with MDA-MB-231 breast; > 16.7 µM in the assay on NCI-H460 lung; > 16.7 µM in the assay on OVCAR-4 ovarian; > 16.7 µM in the assay on OVCAR-5 ovarian. Moreover, the TGI in the assay on RPMI-8226 leukemia and in the assay on TK-10 renal was > 16.7 µM throughout.
Take `CC1CCCCCC(=O)c2c(O)cc(O)cc2CC(=O)O1` (centres undefined): the TGI with COLO 205 colon, in the assay on HOP-62 NSCLC, with MDA-MB-231 breast, with NCI-H460 lung, in the assay on OVCAR-4 ovarian and in the assay on OVCAR-5 ovarian was > 100 µM throughout. In addition, the TGI in the assay on RPMI-8226 leukemia and in the assay on TK-10 renal was > 100 µM throughout.
For `C=CC1(C)CCC2C(=CCC3C2(C)CC(O)C(O)C3(C)COC2OC(CO)C(O)C(O)C2O)C1` (centres undefined), the TGI in the assay on COLO 205 colon, with MDA-MB-231 breast, in the assay with NCI-H460 lung, with OVCAR-4 ovarian, in the assay with OVCAR-5 ovarian and in the assay with TK-10 renal was > 100 µM in each case.
As to `Nc1c(C(=O)Nc2cccc(Cl)c2)sc2nc3c(cc12)C(=O)CCC3`, the GI50 in the assay with COLO 205 colon is 0.288 µM; in the assay on HOP-62 NSCLC, 0.663 µM; in the assay with MDA-MB-231 breast, 1.88 µM; with NCI-H460 lung it was 0.322 µM; in the assay on OVCAR-4 ovarian, 13.3 µM; with OVCAR-5 ovarian, 2.09 µM. For the same compound, the GI50 in the assay with TK-10 renal was 36.7 µM. The TGI in the assay with HOP-62 NSCLC, with MDA-MB-231 breast, in the assay on NCI-H460 lung, in the assay with OVCAR-4 ovarian, with OVCAR-5 ovarian and in the assay on TK-10 renal was > 100 µM throughout.
As to `O=C(O)c1ccc(N(/C=C/C(=O)C(F)(F)F)Cc2ccc(Cl)cc2)cc1`, the GI50 was 36.7 µM with COLO 205 colon; 24.5 µM in the assay on HOP-62 NSCLC; 18.6 µM in the assay with MDA-MB-231 breast; > 100 µM in the assay on NCI-H460 lung; 44.6 µM with OVCAR-5 ovarian; 29.8 µM in the assay on RPMI-8226 leukemia. For the same compound, the GI50 in the assay on TK-10 renal is 27 µM. For the same compound, the TGI in the assay on COLO 205 colon was > 100 µM; in the assay with HOP-62 NSCLC, 65.3 µM; in the assay with MDA-MB-231 breast, 48.2 µM; with NCI-H460 lung, > 100 µM; in the assay with OVCAR-5 ovarian it was > 100 µM; in the assay on RPMI-8226 leukemia, > 100 µM. Also, in the assay on TK-10 renal, the TGI was 60.8 µM.
On to `O=C([CH-]C(=O)c1ccccc1)c1ccccc1.O=C([CH-]C(=O)c1ccccc1)c1ccccc1.O=C([CH-]C(=O)c1ccccc1)c1ccccc1.[Ga+3]`, for which the GI50 was > 100 µM in the assay on COLO 205 colon; 16.3 µM in the assay with NCI-H460 lung; 64.7 µM in the assay with OVCAR-4 ovarian; > 100 µM with OVCAR-5 ovarian; 27 µM with RPMI-8226 leukemia; > 100 µM with TK-10 renal. Moreover, the TGI with COLO 205 colon, in the assay on NCI-H460 lung, in the assay with OVCAR-4 ovarian, with OVCAR-5 ovarian, in the assay on RPMI-8226 leukemia and in the assay on TK-10 renal was > 100 µM in each case.
Take `N#CCCNc1nonc1-c1nc2ccccc2n1CC(=O)c1ccc(N)cc1`: the GI50 with COLO 205 colon is 0.022 µM; with HOP-62 NSCLC it was 0.0432 µM; in the assay on NCI-H460 lung, 0.0317 µM; with OVCAR-4 ovarian, 1.88 µM; in the assay with OVCAR-5 ovarian, 0.0593 µM; in the assay with RPMI-8226 leukemia, 0.0309 µM. In addition, the TGI with COLO 205 colon is 0.0477 µM; in the assay on HOP-62 NSCLC, > 100 µM; with NCI-H460 lung it was > 32.9 µM; in the assay on OVCAR-4 ovarian, > 100 µM; with OVCAR-5 ovarian, > 100 µM; with TK-10 renal it was > 90.9 µM.
For the compound `O=S(=O)(NCCCNc1cc(-c2cn(-c3ccccc3)nc2-c2cccc(O)c2)ccn1)c1ccc(C(F)(F)F)cc1`, the GI50 in the assay with COLO 205 colon was 1.78 µM; in the assay with HOP-62 NSCLC, 1.95 µM; with NCI-H460 lung it was 1.86 µM; in the assay with OVCAR-4 ovarian it was 1.87 µM; in the assay with OVCAR-5 ovarian, 1.92 µM; in the assay on RPMI-8226 leukemia it was 1.66 µM. Further, in the assay with TK-10 renal, the GI50 was 3.32 µM. Besides, the TGI is 3.54 µM in the assay with COLO 205 colon; 3.78 µM in the assay with HOP-62 NSCLC; 3.86 µM in the assay on NCI-H460 lung; 5.78 µM with OVCAR-4 ovarian; 5.16 µM in the assay with OVCAR-5 ovarian; 4.82 µM in the assay with RPMI-8226 leukemia. Also, the TGI with TK-10 renal worked out at 9.84 µM.
`CC(C)=CC[C@@H]1CC2(CC=C(C)C)C(=O)C(OC3(C(=O)c4ccccc4)C(=O)C4(CC=C(C)C)C[C@@H](CC=C(C)C)C(C)(C)C(CC=C(C)C)(C4=O)C3=O)(C(=O)c3ccccc3)C(=O)C(CC=C(C)C)(C2=O)C1(C)C` (some centres undefined): the GI50 in the assay on COLO 205 colon was 1.2 µM; in the assay on HOP-62 NSCLC it was 1.36 µM; in the assay on MDA-MB-231 breast it was 1.49 µM; with NCI-H460 lung it was 1.27 µM; in the assay with OVCAR-5 ovarian it was 1.51 µM; with RPMI-8226 leukemia, 1.05 µM. The GI50 in the assay with TK-10 renal was 1.54 µM. Moreover, the TGI with COLO 205 colon was found to be 3.22 µM; in the assay on HOP-62 NSCLC it was 4 µM; in the assay on MDA-MB-231 breast it was 4.12 µM; in the assay with NCI-H460 lung it was 3.07 µM; with OVCAR-5 ovarian, 8.06 µM; with RPMI-8226 leukemia it was 2.7 µM. Besides, in the assay with TK-10 renal, the TGI is 8.04 µM.
`Cc1ccc(N)c(S)c1`: the TGI in the assay with COLO 205 colon came to 52.9 µM; in the assay with HOP-62 NSCLC, 44.4 µM; in the assay with MDA-MB-231 breast, 31.3 µM; in the assay with NCI-H460 lung, 49.9 µM; in the assay on OVCAR-4 ovarian it was 43.5 µM; in the assay on OVCAR-5 ovarian, 42 µM. In the assay on TK-10 renal, this compound yielded a TGI of 43.1 µM.
Regarding `COc1cc(/C=C2\CC3C4CC=C5CC(OC(C)=O)CC[C@]5(C)C4CC[C@]3(C)C2=O)ccc1OCCN1CCCC1` (some centres undefined), the GI50 in the assay on COLO 205 colon was 4.83 µM; in the assay with HOP-62 NSCLC it was 9.52 µM; in the assay on MDA-MB-231 breast, 3.39 µM; in the assay with NCI-H460 lung, 2.54 µM; in the assay with OVCAR-4 ovarian it was 2.38 µM; in the assay with OVCAR-5 ovarian, 13.4 µM. In the assay on TK-10 renal, the GI50 was 7.25 µM. In addition, the TGI in the assay on COLO 205 colon is > 63.8 µM; with HOP-62 NSCLC, 23 µM; in the assay with MDA-MB-231 breast, 11.2 µM; with OVCAR-4 ovarian, > 19.6 µM; with OVCAR-5 ovarian, 26.4 µM; in the assay on TK-10 renal, 19.6 µM.
